Consider two compounds from patent publication US20210330736A1 (UNIVERSITEIT VAN AMSTERDAM, priority 2018, published 2021).

Assay [1] deals with Th Ser40 phosphorylation in mouse striatum slices. Briefly: Th Ser40 phosphorylation in mouse striatal slices ex vivo (WES automated western). In kind it is cell-based. Particulars: mouse striatal slices in aCSF. From the text:
FIG. 13. Bay 60-7550 and Guanylin synergize to induce Ser40 phosphorylation Analysis of striatal slices treated with indicated compounds. WES data showing the phosphorylation of Th on Serine 40 is shown as well as total Th levels (a). From left to right are sequential striatal slices from rostral to caudal. Every slice is split into left and right hemisphere and either treated with compounds or vehicle. Left a positive and negative control is shown (Neuro2a cells transfected with Th or empty vector). The amount of Th Ser40 is corrected for the amount of total Th and shown in the bar graph (b). Each individual slice is indicated by a different symbol. Signficance is determined using a 2-tailed paired t-test. 2-tailed paired t-test: p=0.006.
Adult mice with an average of 5 weeks were sacrificed and the brain was quickly removed and sliced into coronal sections of 250 μm using a vibratome. Sections containing striatum were micro-dissected to remove non-striatal structures. Hemispheres were separated and one hemisphere was treated with compounds whereas the counter-hemisphere was treated with vehicle. Treatment of slices occurred in carbonized artificial cerebrospinal fluid (aCSF). After treatments, slices were lyzed in SDS containing sample buffer, sonicated, and heated at 95° C. Samples were analyzed on a WES automated western system (Protein Simple) according to manufacturer's instructions.
To investigate the effect of PDE2 inhibition in the mouse brain, an ex-vivo approach using brain slices was utilized. Coronal slices of mouse striatum were prepared and treated with BAY-60 7550 diluted in aCSF and subsequently analyzed by a WES automated western system. […] PDE2 is thus expressed in dopaminergic neurons and PDE2 protein and Th protein are present in the synaptic terminals of the neurons which project from the midbrain dopamine system to the striatum. To investigate the effects of GUCY2C ligands on Th activation, coronal slices of the mouse striatum were prepared, treated with guanylin and analyzed for Th Ser40 phosphorylation as was done for BAY-60-7550. […] The machinery for producing dopamine is thus present in the synaptic terminals where dopamine is released. […] Since both BAY 60-7550 and guanylin increased Th phosphorylation at 10μM, but not at 1 μM, we examined the effect of combining BAY 60-7750 and guanylin at 1μM.

The target in assay [2] is GUCY2C (Homo sapiens, UniProt P25092). The assay can be described thus: Th Ser40 phosphorylation in HEK cells co-transfected with Th and GUCY2C (western blot). The class given is cell-based. On the set-up: expressed in transfected cells; host or cells: HEK cells (ATCC), calcium-phosphate transfection, co-transfected with mouse Th. Particulars: guanylin 10 μM, uroguanylin 1 μM, IBMX 100 μM, 1 hour. The protocol: FIG. 4. GUCY2C activation increases Ser40 phosphorylation. Immunocytochemistry images (A) and western blotting analysis (B) of HEK cultures transfected with Th or Th+GUCY2C. (C) Co-transfected HEK cells were treated with guanylin (G) or uroguanylin (UroG) and changes in Ser40 phosphorylation were studied. The graph represents the statistical analysis (n=3 for Control, n=6 for Guanylin, n=9 for Uroguanylin; Mean±SEM). Unpaired Student's t-test (p-value: **<0.01).
FIG. 5. […] (A) HEK cultures were treated with guanylin, in the presence or absence of IBMX. […] Unpaired Student's t-test (p-values: ****<0.0001, **<0.01, *<0.05). (B) HEK cells were co-transfected with Th and either the wt GUCY2C or a gain-of-function mutant (R792S). Ser40 phosphorylation was studied following guanylin treatment (G). […] Unpaired Student's t-test (p-values: ***<0.001, **<0.01).
HEK cells were maintained in 100-mm Petri dishes and grown in DMEM medium supplemented with L-glutamine, penicillin-streptomycin (Pen&Strep) and 10% heat-inactivated fetal bovine serum (HIFBS). Growing conditions were 37° C. and 5% CO2. For every-other-day passages, HEK cultures were split at a 1:3 dilution. From Friday to Monday, the split proportion was doubled for all cell lines. For passaging, cultures were rinsed with PBS and incubated with 1 mL of trypsin during 5 minutes. Cells were resuspended in growth medium and finally split to the proper dilution. The experiments were performed in 12-well plates. For immunocytochemistry analysis, sterile 18-mm coverslips were added prior to the plating. 500 !μL of cell resuspension was seeded in each well. If experiments were to be performed 48 hours after the plate preparation, 1:5 was the seeding ratio for HEK cells. When the experiments took place 96 hours post-plating, 1:7 was the working dilution for HEK cells. Unless otherwise stated, HEK cultures were processed 96 hours post-plating.
HEK cells were transfected using the calcium-phosphate method. 12-well plates were refreshed with 500 μL of growth medium before transfection. […]
On the technique in general: A western blot detects proteins with antibodies after separation by electrophoresis.

Sequence of GUCY2C (P25092 24-1073): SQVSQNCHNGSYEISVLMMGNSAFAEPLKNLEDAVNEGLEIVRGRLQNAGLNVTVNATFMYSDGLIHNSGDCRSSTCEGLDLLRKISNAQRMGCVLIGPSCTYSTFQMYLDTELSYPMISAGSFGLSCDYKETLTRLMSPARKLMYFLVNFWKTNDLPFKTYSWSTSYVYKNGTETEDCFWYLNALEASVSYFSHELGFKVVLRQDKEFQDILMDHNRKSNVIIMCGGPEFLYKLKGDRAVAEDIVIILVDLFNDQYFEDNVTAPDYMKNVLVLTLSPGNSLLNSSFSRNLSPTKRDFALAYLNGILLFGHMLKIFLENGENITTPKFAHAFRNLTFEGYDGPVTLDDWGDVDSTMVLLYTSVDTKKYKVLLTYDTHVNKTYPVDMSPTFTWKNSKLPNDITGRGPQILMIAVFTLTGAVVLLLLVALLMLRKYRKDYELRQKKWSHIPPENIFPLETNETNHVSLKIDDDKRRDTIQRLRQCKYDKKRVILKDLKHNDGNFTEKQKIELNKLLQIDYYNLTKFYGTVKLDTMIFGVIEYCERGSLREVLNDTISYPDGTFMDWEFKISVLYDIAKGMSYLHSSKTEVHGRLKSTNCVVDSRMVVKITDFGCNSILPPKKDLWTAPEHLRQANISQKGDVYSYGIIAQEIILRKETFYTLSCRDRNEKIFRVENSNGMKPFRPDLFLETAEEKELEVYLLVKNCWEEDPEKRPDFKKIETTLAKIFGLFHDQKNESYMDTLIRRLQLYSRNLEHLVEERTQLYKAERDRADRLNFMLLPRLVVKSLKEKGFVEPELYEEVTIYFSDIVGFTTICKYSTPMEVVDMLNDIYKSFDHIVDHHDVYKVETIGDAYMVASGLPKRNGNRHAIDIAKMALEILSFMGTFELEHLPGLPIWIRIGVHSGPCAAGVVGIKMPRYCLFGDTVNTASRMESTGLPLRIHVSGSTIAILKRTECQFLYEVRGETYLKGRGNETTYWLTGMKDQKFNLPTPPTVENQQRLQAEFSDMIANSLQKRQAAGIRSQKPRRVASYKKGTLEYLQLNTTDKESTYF

Consider `COc1ccc(Cc2nn3c([C@@H](CCCc4ccccc4)[C@@H](C)O)nc(C)c3c(=O)[nH]2)cc1OC` [BAY 60-7550], for which the entries for the “Ser40 phosphorylation in striatal slices” value in assay [1] (1 μM) and in assay [1] (10 μM) were “did not result in a significant increase” and “increase in Ser40 phosphorylation”, respectively.

As for “guanylin: natural agonistic ligand of GUCY2C, 15 amino acid polypeptide; commercially available rat/mouse guanylin (Chemcruz) (PNTCEICAYAACTGC) [reference compound]”, the “P-Ser40 levels / Ser40 phosphorylation (in words)” value in assay [2] was “increase P-Ser40 levels”. The “Ser40 phosphorylation in striatal slices” value in assay [1] (1 μM) is on record as “did not result in a significant increase”; in assay [1] (10 μM) it was “increase in Ser40 phosphorylation”.
